The subject of one test is T47D cells. Briefly: Cellular Growth Inhibition Assay for T47D Cells (CellTiter-Glo). In kind it is cell-based, human. To be noted: 72 hours. The essentials: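 GI50 values derive from four-parameter regression of CellTiter-Glo 2.0 luminescence, using zero luminescence as baseline. Human breast cancer T47D cells (3000/well; DMEM, 10% FBS, 0.2 units/mL insulin) were exposed for 72 h to compound dilutions at 0.5% DMSO, with dosing starting 24 h after seeding.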
(In general: ATP-based viability assays read luminescence as a measure of living cells.)

The test system of test [1] is T-Rex 293 cell line SC3 cells having increased expression of androgen receptor protein due to exposure to doxycycline. Nature of the test: Cellular growth inhibition, T-Rex 293 SC3 cells with doxycycline (increased androgen receptor expression), CellTiter-Glo. In kind it is cell-based. The note with it: T-Rex 293 SC3 cells with 10 ng/mL doxycycline (increased androgen receptor expression), 72 hours, CellTiter-Glo 2.0. The method, boiled down: (§1)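 Growth inhibition is measured in an inducible AR-expressing T-Rex 293 clone, SC3, cultured with or without 10 ng/mL doxycycline in hormone-depleted medium. Test compounds are applied for 72 hours. GI50 values derive from CellTiter-Glo 2.0 signal fitted by four-parameter regression.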

Test [2] deals with T-Rex 293 cell line SC3 cells lacking increased expression of androgen receptor protein. Nature of the test: Cellular growth inhibition, T-Rex 293 SC3 cells without doxycycline (no increased androgen receptor expression), CellTiter-Glo. In kind it is cell-based. The note with it: T-Rex 293 SC3 cells not exposed to doxycycline (no increased androgen receptor expression), 72 hours. The method, boiled down:
as §1

The subject of a further test is VCaP cells. Briefly: Cellular growth inhibition assay for VCaP cells, CellTiter-Glo. In kind it is cell-based, human. To be noted: 72 hours. The method, boiled down:
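GI50 values come from four-parameter curve fits of luminescence data normalized to a zero baseline. Compound, in medium with 0.5% DMSO, was added one day after plating and left for 72 h before CellTiter-Glo 2.0 addition.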

What is called GI50 is the concentration giving 50% growth inhibition. The low end stands for greater sensitivity of the cells, the high end for lower sensitivity of the cells.

Take `CCS(=O)(=O)Nc1ccc(Oc2cccc(C3CC(C4CCN(c5ncc(C(=O)N[C@H]6C(C)(C)[C@H](Oc7ccc(C#N)c(Cl)c7)C6(C)C)cn5)CC4)C3)c2)c(-c2cn(C)c(=O)c3[nH]ccc23)c1` (some centres unmarked) [Compound I-157]: the GI50 in the test with T47D cells (Homo sapiens) was less than 500 nM; in test [1], less than 500 nM; in test [2] it was more than 3000 nM; in the test on VCaP cells (Homo sapiens) it was less than 500 nM.
For `CCS(=O)(=O)Nc1ccc(Oc2cccc(COC3CCN(c4ncc(C(=O)N[C@H]5C(C)(C)[C@H](Oc6ccc(C#N)c(Cl)c6)C5(C)C)cn4)CC3)c2F)c(-c2cn(C)c(=O)c3[nH]ccc23)c1` [Compound I-164], the GI50 in the test with T47D cells (Homo sapiens) is less than 500 nM; in test [1], less than 500 nM; in test [2], more than 3000 nM; in the test on VCaP cells (Homo sapiens) it was less than 500 nM.
On to `CCS(=O)(=O)Nc1ccc(Oc2cccc(CCC3CCN(c4ncc(C(=O)N[C@H]5C(C)(C)[C@H](Oc6ccc(C#N)c(Cl)c6)C5(C)C)cn4)CC3)c2F)c(-c2cn(C)c(=O)c3[nH]ccc23)c1` [Compound I-165], for which the GI50 with T47D cells (Homo sapiens) was less than 500 nM; in test [1] it was less than 500 nM; in test [2], more than 3000 nM; with VCaP cells (Homo sapiens) it was less than 500 nM.
`Cn1cc(-c2cc(NS(=O)(=O)C3CC3)ccc2Oc2cccc(N3CC(CC4CCN(c5ncc(C(=O)N[C@H]6C(C)(C)[C@H](Oc7ccc(C#N)c(Cl)c7)C6(C)C)cn5)CC4)C3)c2F)c2cc[nH]c2c1=O` [Compound I-170]: the GI50 in the test on T47D cells is 500 to 1500 nM; in test [1], less than 500 nM; in test [2], more than 3000 nM; with VCaP cells it was less than 500 nM.
As to `Cn1cc(-c2cc(NS(=O)(=O)C3CC3)ccc2Oc2cccc(N3CC(OC4CCN(c5ncc(C(=O)N[C@H]6C(C)(C)[C@H](Oc7ccc(C#N)c(Cl)c7)C6(C)C)cn5)CC4)C3)c2F)c2cc[nH]c2c1=O` [Compound I-171], the concentration for 50% growth inhibition (GI50) with T47D cells was less than 500 nM; in test [1], less than 500 nM; in test [2], more than 3000 nM; in the test with VCaP cells it was more than 3000 nM.
As for `CCS(=O)(=O)Nc1ccc(Oc2cccc(N3CC(N(C)C4CCN(c5ncc(C(=O)N[C@H]6C(C)(C)[C@H](Oc7ccc(C#N)c(Cl)c7)C6(C)C)cn5)CC4)C3)c2F)c(-c2cn(C)c(=O)c3[nH]ccc23)c1` [Compound I-178], the GI50 (in the test with T47D cells; in test [1]; in test [2]; in the test with VCaP cells) was less than 500 nM throughout.
As for `CC(C)c1ccc(Oc2cccc(OCCN3CCN(c4ncc(C(=O)N[C@H]5C(C)(C)[C@H](Oc6ccc(C#N)c(Cl)c6)C5(C)C)cn4)CC3)c2F)c(-c2cn(C)c(=O)c3[nH]ccc23)c1` [Compound I-179], the concentration for 50% growth inhibition (GI50) with T47D cells is 500 to 1500 nM; in test [1], less than 500 nM; in test [2], more than 3000 nM; in the test with VCaP cells, more than 3000 nM.
Take `CCS(=O)(=O)Nc1ccc(Oc2cccc(C3CC(N4CCN(c5ncc(C(=O)N[C@H]6C(C)(C)[C@H](Oc7ccc(C#N)c(Cl)c7)C6(C)C)cn5)CC4)C3)c2)c(-c2cn(C)c(=O)c3[nH]ccc23)c1` (some centres unmarked) [Compound I-180]: the 50% growth inhibitory concentration (GI50) is less than 500 nM with T47D cells (Homo sapiens), less than 500 nM in test [1], more than 3000 nM in test [2] and less than 500 nM in the test with VCaP cells (Homo sapiens).
Turning to `CCS(=O)(=O)Nc1ccc(Oc2cccc(N3CC(OC4CCN(c5ncc(C(=O)N[C@H]6C(C)(C)[C@H](Oc7ccc(C#N)c(Cl)c7)C6(C)C)cn5)CC4)C3)c2)c(-c2cn(C)c(=O)c3[nH]ccc23)c1` [Compound I-181], the GI50 is less than 500 nM with T47D cells, less than 500 nM in test [1], more than 3000 nM in test [2] and less than 500 nM in the test with VCaP cells.
For `CCS(=O)(=O)Nc1ccc(Oc2cccc(N3CCC(C4CN(c5ncc(C(=O)N[C@H]6C(C)(C)[C@H](Oc7ccc(C#N)c(Cl)c7)C6(C)C)cn5)C4)CC3)c2)c(-c2cn(C)c(=O)c3[nH]ccc23)c1` [Compound I-182], the GI50 is less than 500 nM with T47D cells (Homo sapiens), less than 500 nM in test [1], more than 3000 nM in test [2] and less than 500 nM with VCaP cells (Homo sapiens).
As for `Cn1cc(-c2cc(S(C)(=O)=O)ccc2Oc2cccc(N3CC(CC4CCN(c5ncc(C(=O)NC6C(C)(C)C(Oc7ccc(C#N)c(Cl)c7)C6(C)C)cn5)CC4)C3)c2F)c2cc[nH]c2c1=O` (centres unmarked) [Compound I-189, N-[3-(3-chloro-4-cyano-phenoxy)-2,2,4,4-tetramethyl-cyclobutyl]-2-[4-[[1-[2-fluoro-3-[2-(6-methyl-7-oxo-1H-pyrrolo[2,3-c]pyridin-4-yl)-4-methylsulfonyl-phenoxy]phenyl]azetidin-3-yl]methyl]-1-piperidyl]pyrimidine-5-carboxamide], the GI50 with T47D cells (Homo sapiens) was less than 500 nM; in test [1], less than 500 nM; in test [2] it was more than 3000 nM; in the test with VCaP cells (Homo sapiens), more than 3000 nM.
In the case of `Cn1cc(-c2cc(S(C)(=O)=O)ccc2Oc2cccc(N3CC(OC4CCN(c5ncc(C(=O)N[C@H]6C(C)(C)[C@H](Oc7ccc(C#N)c(Cl)c7)C6(C)C)cn5)CC4)C3)c2F)c2cc[nH]c2c1=O` [Compound I-191], the concentration for 50% growth inhibition (GI50) (with T47D cells; in test [1]; in test [2]; with VCaP cells) was less than 500 nM in each case.
As to `CC(C)N(CCOC1CCN(c2ncc(C(=O)N[C@H]3C(C)(C)[C@H](Oc4ccc(C#N)c(Cl)c4)C3(C)C)cn2)CC1)c1cccc(Oc2ccc(C(C)(C)O)cc2-c2cn(C)c(=O)c3[nH]ccc23)c1F` [Compound I-209], the GI50 (in the test on T47D cells; in test [1]; in test [2]; in the test on VCaP cells) was less than 500 nM each time.
Turning to `Cn1cc(-c2cc(C(C)(C)O)ccc2Oc2cccc(OCCC3CC4(C3)CN(c3ncc(C(=O)N[C@H]5C(C)(C)[C@H](Oc6ccc(C#N)c(Cl)c6)C5(C)C)cn3)C4)c2F)c2cc[nH]c2c1=O` [Compound I-210], the GI50 in the test with T47D cells was 500 to 1500 nM; in test [1], less than 500 nM; in test [2] it was less than 500 nM; with VCaP cells it was less than 500 nM.
As to `CN(C1CCN(c2ncc(C(=O)N[C@H]3C(C)(C)[C@H](Oc4ccc(C#N)c(Cl)c4)C3(C)C)cn2)CC1)C1CN(c2cccc(Oc3ccc(C(C)(C)O)cc3-c3cn(C)c(=O)c4[nH]ccc34)c2F)C1` [Compound I-230], the GI50 in the test with T47D cells was less than 500 nM; in test [1], less than 500 nM; in test [2] it was 500 to 1500 nM; in the test with VCaP cells, less than 500 nM.
In the case of `CCS(=O)(=O)c1ccc(OC(CCCCOC2CCN(c3ncc(C(=O)N[C@H]4C(C)(C)[C@H](Oc5ccc(C#N)c(Cl)c5)C4(C)C)cn3)CC2)C2CC2)c(-c2cn(C)c(=O)c3[nH]ccc23)c1` (some centres unmarked) [Compound I-234], the GI50 (with T47D cells; in test [1]; in test [2]; in the test with VCaP cells) was less than 500 nM throughout.
As for `CCS(=O)(=O)c1ccc(OC(CCCCCN2CCN(c3ncc(C(=O)N[C@H]4C(C)(C)[C@H](Oc5ccc(C#N)c(Cl)c5)C4(C)C)cn3)CC2)C2CC2)c(-c2cn(C)c(=O)c3[nH]ccc23)c1` (some centres unmarked) [Compound I-235], the GI50 (in the test with T47D cells; in test [1]; in test [2]; in the test with VCaP cells) was less than 500 nM throughout.
Regarding `CCS(=O)(=O)c1ccc(OC(CCCOC2CCN(c3ncc(C(=O)N[C@H]4C(C)(C)[C@H](Oc5ccc(C#N)c(Cl)c5)C4(C)C)cn3)CC2)C2CC2)c(-c2cn(C)c(=O)c3[nH]ccc23)c1` (some centres unmarked) [Compound I-236], the GI50 (in the test on T47D cells; in test [1]; in test [2]; in the test on VCaP cells) was less than 500 nM throughout.
Regarding `Cn1cc(-c2cc(C(C)(C)O)ccc2OCC(CCCN2CCN(c3ncc(C(=O)N[C@H]4C(C)(C)[C@H](Oc5ccc(C#N)c(Cl)c5)C4(C)C)cn3)CC2)C2CC2)c2cc[nH]c2c1=O` (some centres unmarked) [Compound I-237], the 50% growth inhibitory concentration (GI50) was 500 to 1500 nM with T47D cells (Homo sapiens), less than 500 nM in test [1], 500 to 1500 nM in test [2] and 500 to 1500 nM with VCaP cells (Homo sapiens).
In the case of `Cn1cc(-c2cc(C(C)(C)O)ccc2Oc2ccc(F)c(OCCN3CC4(C3)CN(c3ncc(C(=O)N[C@H]5C(C)(C)[C@H](Oc6ccc(C#N)c(Cl)c6)C5(C)C)cn3)C4)c2F)c2cc[nH]c2c1=O` [Compound I-239], the GI50 (in the test on T47D cells; in test [1]; in test [2]; in the test on VCaP cells) was less than 500 nM in each case.
For `Cn1cc(-c2cc(C(C)(C)O)ccc2Oc2cccc(N3CC(N(C4CC4)C4CCN(c5ncc(C(=O)N[C@H]6C(C)(C)[C@H](Oc7ccc(C#N)c(Cl)c7)C6(C)C)cn5)CC4)C3)c2F)c2cc[nH]c2c1=O` [Compound I-240], the GI50 in the test with T47D cells was less than 500 nM; in test [1], less than 500 nM; in test [2] it was more than 3000 nM; in the test with VCaP cells it was 500 to 1500 nM.
As for `Cn1cc(-c2cc(C(C)(C)O)ccc2Oc2cccc(N3CC(CN4CC5CC4CN5c4ncc(C(=O)N[C@H]5C(C)(C)[C@H](Oc6ccc(C#N)c(Cl)c6)C5(C)C)cn4)C3)c2F)c2cc[nH]c2c1=O` (some centres unmarked) [Compound I-241], the GI50 (in the test with T47D cells; in test [1]; in test [2]; in the test with VCaP cells) was less than 500 nM in each case.
As for `CCS(=O)(=O)c1ccc(OCC(CCOC2CCN(c3ncc(C(=O)N[C@H]4C(C)(C)[C@H](Oc5ccc(C#N)c(Cl)c5)C4(C)C)cn3)CC2)C2CC2)c(-c2cn(C)c(=O)c3[nH]ccc23)c1` (some centres unmarked) [Compound I-242], the 50% growth inhibitory concentration (GI50) (in the test with T47D cells; in test [1]; in test [2]; in the test with VCaP cells) was less than 500 nM throughout.
